Here are results for two molecules from patent publication US20170266123A1, “COATED PARTICLES FOR DRUG DELIVERY” (Dana-Farber Cancer Institute, Inc., priority 2014, published 2017).

One data set has as its system 4T1 cells. As to the kind of experiment: Viability of 4T1 cells exposed to Dox or Dox-laden nanoparticles through matrigel. Type of data set: cell-based. Conditions: 500 ng/mL Dox; 3, 6 and 24 hours. On the procedure:
Nanoparticles with doxorubicin in the core were formed as described in Example 1, except doxorubicin was added to the organic solvent. The particles were coated as described in Example 10. To test the cell viability for cells exposed to doxorubicin particles, 500 ng/mL of Dox or Dox-laden nanoparticles were added to matrigel on top chamber of a 24 well plates seeded with 4T1 cells. Plates were incubated at 37° C., while gently shaken. The viability was measured at 3 hours, 6 hours, and 24 hours. Cell viability was determined as described in Example 5. For the mammosphere assay, 4T1 cells were seeded at 1000 cells/150 uL/well in 96 well ultra-low adherence plate. The remaining 4T1 cells after treatment were harvested and filtered and the number of mammospheres counted using microscopy.

Data set [1] concerns SKOV-3 (human ovarian cancer). As to the kind of experiment: PTX cytotoxicity, MTT assay, SKOV3. It is filed as cell-based. As to conditions: SK-OV-3, SKOV3, 72 hours. On the procedure:
(§1) Cells were seeded at a density of 10,000 cells per well in a 96-well and incubated overnight in 200 μL of complete medium. The culture medium was then replaced with 198 μL of fresh medium, two free drug/DMSO solution or NP suspensions in the final concentration ranging from 0.001 to 10,000 nM. After 72 hours of incubation, the medium was replaced with 100 μL of fresh medium containing 13% MTT and incubated for 3.5 hours. Finally, 100 μL of the solubilization/stop solution comprising 20% SDS, 0.02% v/v acetic acid, and 50% v/v DMSO was added to each well, and the absorbance was read at 560 nm by the microplate reader. Cell viability was calculated by dividing the absorbance of treated cells by that of untreated cells after subtracting the absorbance of cell-free medium from each. Here, the untreated cells were those provided with no drug but handled equally otherwise, and the cell-free medium was the medium mixed with MTT solution and stop-solution without cells.
(§2) Cell viability was determined as described in Example 5.
On the technique in general: Formazan colour is commonly taken as a measure of viable cells.

Data set [2] concerns Calu6 (human lung cancer). The data set is described as follows: PTX cytotoxicity, MTT assay, Calu6. As to conditions: Calu-6, Calu6, 72 hours. It is filed as cell-based. On the procedure: as §1, §2
Data set [3] deals with BR5FVB1-Akt (murine ovarian cancer). The data set is described as follows: PTX cytotoxicity, MTT assay, BR5FVB1-Akt. Type of data set: cell-based. As to conditions: Mus musculus, 72 hours. On the procedure:
as §1, §2

Data set [4] can be described thus: PTX content in murine blood and peritoneal cavity after IP dosing. Type of data set: in vivo. As to conditions: female, FVB, mouse, mice, IP 5 mg/kg, 3 hours post dosing. On the procedure:
Six week-old female FVB mice were obtained from Charles River Laboratory (Boston, USA). Mice were housed in a pathogen-free facility in accordance with the standards of the Dana-Farber Cancer Institute. All animal experiments were approved by the Institute's IACUC. Mice were kept in groups of 4-5 per cage in a 12 hour light/12 hour dark cycle and housed at 25° C. with 50% relative humidity. […] Mice were anaesthetized, and blood samples were collected via retro-orbital bleeding 3 hours post dosing. Blood samples were kept on ice until centrifugation. Samples were centrifuged at 1,400 RCF for 10 min, and plasma was collected. After blood sample collection, mice were sacrificed, and their peritoneal cavities were washed thrice post-mortem with PBS. Plasma and peritoneal washes were flash frozen with liquid nitrogen and lyophilized. The lyophilized powders were rehydrated in 300 μL water and extracted with tert-butyl methyl ether (tBME). The organic solvent was dried under nitrogen.

A further data set relates to BR5FVB1-Akt cells. The data set is described as follows: Survival study in immunocompetent murine model of ovarian cancer. It is filed as in vivo, mouse. Conditions: FVB mice, IP 5 mg/kg twice weekly, five doses. On the procedure: The BR5FVB1-Akt mouse ovarian cancer cell line was cultured in DMEM supplemented with 10% FBS and 1% penicillin/streptomycin at 37° C. with 5% CO2. Subconfluent BR5FVB1-Akt cells were trypsinized, washed, and suspended in opti-MEM as a single-cell suspension. Six week-old female FVB mice were injected IP with a total volume of 400 μl opti-MEM containing 3.75×10^6 BR5FVB1-Akt cells.
Mice were sacrificed by CO2 asphyxiation upon ascites development. Their peritoneal cavities were opened postmortem to observe tumor location and extent of metastasis in the peritoneal region. All FVB mice inoculated with BR5FVB1-Akt cells developed tumors. Tumors developed gradually and manifested by formation of ascites in the peritoneal cavity. Tumors were detectable post-mortem as nodules of various sizes and number on the peritoneal wall or adhered to the intestine.
Statistical analysis was performed with GraphPad Prism 5 (La Jolla, Calif., USA). Statistical significance among groups was determined by one-way ANOVA, and pairs were compared by Tukey's multi-comparison test. Survival groups were compared using a Mantel-Cox test.

As usually defined, the IC50 is the concentration needed to halve the response being measured.

`COc1cccc2c1C(=O)c1c(O)c3c(c(O)c1C2=O)C[C@@](O)(C(=O)CO)C[C@@H]3O[C@H]1C[C@H](N)[C@H](O)[C@H](C)O1` [Dox in solution, doxorubicin]: the viability of cells result in the data set on 4T1 cells is on record as “reduced viability of cells”.
With `CC(=O)O[C@H]1C(=O)[C@@]2(C)[C@H]([C@H](OC(=O)c3ccccc3)[C@]3(O)C[C@H](OC(=O)[C@H](O)[C@@H](NC(=O)c4ccccc4)c4ccccc4)C(C)=C1C3(C)C)[C@]1(OC(C)=O)CO[C@@H]1C[C@@H]2O` [PTX, paclitaxel], the figures for the IC50 in data set [1], in data set [2] and in data set [3] were ~10 nM, ~10 nM and ~100 nM, respectively. In addition, the values for the concentration at 3 h in data set [4] (peritoneal lavage (PBS wash of peritoneal cavity)) and in data set [4] (plasma) were 4500 ± 1300 ng/mL and 9500 ± 1900 ng/mL, respectively. Also, the tumor onset entry in the data set on BR5FVB1-Akt cells was “developed tumors at similar time points”.
